One series has as its system uninduced N2A cells. It is filed as cell-based. To be noted: cell death as percent of LDH released into medium vs total LDH, compound 10 μM. As to the method: Neurotoxicity assay: Neurotoxicity was assessed using an LDH (lactate dehydrogenase) assay kit (Roche, Mannheim, Germany) according to the manufacturer's specifications. In the viability assay the aggregation inhibitor compound was added at a final concentration of 10 μM to uninduced N2A cells. The activity of LDH was measured spectrophotometrically at 492 nm. Cell death was calculated as percent of LDH released into medium, compared to total LDH obtained after total cell lysis.
In general terms: LDH in the medium is a marker of cell lysis.

Another series deals with tau construct K19 (Homo sapiens, UniProt P10636). Put plainly: Thioflavine S (ThS) assay for aggregation of tau. It is filed as biochemical. To be noted: 10 μM tau construct K19, 2.5 μM heparin, ThS fluorescence; for DC50: read-out: DC50; for pIC50: over night at 37° C., read-out: ID50 (the source's name). Here is the method: Thioflavine S (ThS) Assay for aggregation of tau: 10 μM of the tau construct K19 were incubated with compounds in a concentration range from 1 nM up to 200 μM in the presence of 2.5 μM heparin in 50 mM NH4Ac buffer over night at 37° C. After addition of 20 μM ThS the signal was measured at 521 nm (emission) at an excitation wavelength of 440 nm. The results of this assay are presented in the IC50 column and DC50 column of Table 1 below.
Chain of tau construct K19 (P10636 with tags, fused parts or gaps isoform P10636-2 limits assumed): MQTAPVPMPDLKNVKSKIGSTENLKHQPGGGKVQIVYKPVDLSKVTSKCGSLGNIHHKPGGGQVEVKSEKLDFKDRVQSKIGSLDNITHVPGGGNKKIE

Drawing on patent US8410152B2 (Max-Planck-Gesellschaft zur Forderung der Wissenschaften e. …, priority 2006, dated 2013), this text covers LDH, DC50 and IC50 for 33 compounds.

pIC50: −log10 of the molar value.

`O=C(NNc1nc(-c2ccccc2)cs1)c1ccc(Cl)cc1`: the LDH in the series with uninduced N2A cells was found to be 34.3%. At tau construct K19, the DC50 was more than 200 µM and the pIC50 was less than 3.70.
For `O=C(NNc1nc(-c2ccccc2)cs1)c1cccnc1` [Comp. 1, N′-(4-Phenylthiazol-2-yl)nicotinohydrazide] the same measures were 56.8%, 1.7 µM and 4.77.
Turning to `O=C(NNc1nc(-c2cc3ccccc3oc2=O)cs1)c1cccnc1` [Comp. 2, N′-(4-(2-Oxo-2H-chromen-3-yl)thiazol-2-yl)nicotinohydrazide], in the series with uninduced N2A cells, the LDH was 15.4%. Also, on tau construct K19, the DC50 turned out to be 11.1 µM and the pIC50 is 4.63.
With `O=C(NNc1nc(-c2ccc(Br)cc2)cs1)c1ccc2ccccc2c1` [Comp. 3, N′-(4-(4-Bromophenyl)thiazol-2-yl)-2-naphthohydrazide], in the series on uninduced N2A cells, the LDH was 4.2%. Moreover, at tau construct K19, the DC50 is 169 µM and the pIC50 is less than 3.70.
For the compound `O=C(NNc1nc(-c2cc3ccccc3oc2=O)cs1)c1ccc2ccccc2c1` [Comp. 4, N′-(4-(2-Oxo-2H-chromen-3-yl)thiazol-2-yl)-2-naphthohydrazide], in the series on uninduced N2A cells, the LDH is 15.7%. Besides, at tau construct K19, the DC50 is 88 µM and the pIC50 was less than 3.70.
For `O=C(NNc1nc(-c2cc3ccccc3oc2=O)cs1)c1ccc(F)cc1` [Comp. 5, 4-Fluoro-N′-(4-(2-oxo-2H-chromen-3-yl)thiazol-2-yl)benzohydrazide] the same measures were 8.6%, more than 200 µM and 4.33.
Regarding `O=C(NNc1nc(-c2ccc([N+](=O)[O-])cc2)cs1)Nc1ccccc1` [Comp. 6], the LDH in the series with uninduced N2A cells is recorded as 2.1%. In addition, at tau construct K19, the DC50 is 33.5 µM and the pIC50 was 4.97.
Consider `O=C(NNc1nc(-c2ccc([N+](=O)[O-])cc2)cs1)c1cccnc1` [Comp. 11, N′-[4-(4-nitrophenyl)-1,3-thiazol-2-yl]nicotinohydrazide], for which the LDH in the series on uninduced N2A cells is reported as 12.9%. For the same compound, on tau construct K19, the DC50 is 0.7 µM and the pIC50 was 5.51.
In the case of `O=C(NNc1nc(-c2ccc(Br)cc2)cs1)c1cccnc1` [Comp. 12, N′-[4-(4-bromophenyl)-1,3-thiazol-2-yl]nicotinohydrazide], the LDH in the series on uninduced N2A cells is 13.6%. Also, at tau construct K19, the DC50 was 0.5 µM and the pIC50 was 5.48.
Consider `[N-]=[N+]=Nc1ccc(-c2csc(NNC(=O)c3ccc(F)cc3)n2)cc1` [Comp. 14, N′-[4-(4-azidophenyl)-1,3-thiazol-2-yl]-4-fluorobenzohydrazide], for which the LDH with uninduced N2A cells is listed as 42.5%. In addition, on tau construct K19, the DC50 amounted to 1.3 µM and the pIC50 is 5.33.
With `O=C(NNc1nc(-c2ccc(N3CCCC3)cc2)cs1)c1ccc(F)cc1` [Comp. 15, 4-fluoro-N′-[4-(4-pyrrolidin-1-ylphenyl)-1,3-thiazol-2-yl]benzohydrazide], in the series with uninduced N2A cells, the LDH is given as −1.1%. For the same compound, at tau construct K19, the DC50 was 0.7 µM and the pIC50 is 5.31.
For the compound `O=C(NNc1nc(-c2ccc(N3CCCC3)cc2)cs1)c1ccc2ccccc2c1` [Comp. 16, N′-[4-(4-pyrrolidin-1-ylphenyl)-1,3-thiazol-2-yl]-2-naphthohydrazide], the LDH with uninduced N2A cells is 15.3%. At tau construct K19, the DC50 was 1.5 µM and the pIC50 was 5.24.
Take `O=C(NNc1nc(-c2ccc([N+](=O)[O-])cc2)cs1)c1ccco1` [Comp. 17, N′-[4-(4-nitrophenyl)-1,3-thiazol-2-yl]-2-furohydrazide]: in the series on uninduced N2A cells, the LDH worked out at 4.9%. Moreover, at tau construct K19, the DC50 turned out to be 0.8 µM and the pIC50 is 5.20.
The matching figures for `O=C(NNc1nc(-c2ccc([N+](=O)[O-])cc2)cs1)c1ccc(F)cc1` [Comp. 18, 4-fluoro-N′-[4-(4-nitrophenyl)-1,3-thiazol-2-yl]benzohydrazide]: 46.9%, 0.9 µM and 5.16.
In the case of `Cc1sc(NNC(=O)c2ccc(Cl)cc2)nc1-c1cccc([N+](=O)[O-])c1` [Comp. 19, 4-chloro-N′-[5-methyl-4-(3-nitrophenyl)-1,3-thiazol-2-yl]benzohydrazide], the LDH in the series on uninduced N2A cells is 47.4%. Further, at tau construct K19, the DC50 came to 10.8 µM and the pIC50 is 5.11.
Regarding `O=C(NNc1nc(-c2ccc([N+](=O)[O-])cc2)cs1)c1ccc2ccccc2c1` [Comp. 20, N′-(4-(4-Nitrophenyl)thiazol-2-yl)-2-naphthohydrazide], in the series with uninduced N2A cells, the LDH worked out at 18.7%. For the same compound, at tau construct K19, the DC50 was found to be 0.4 µM and the pIC50 is 4.87.
`O=C(NNc1nc(-c2ccc(Br)cc2)cs1)c1ccncc1` [Comp. 21, N′-[4-(4-bromophenyl)-1,3-thiazol-2-yl]isonicotinohydrazide]: in the series with uninduced N2A cells, the LDH was found to be 1.5%. At tau construct K19, the DC50 was 20.2 µM and the pIC50 is 4.74.
For `O=C(NNc1nc(-c2ccccc2)cs1)c1cccs1` [Comp. 22, N′-(4-phenyl-1,3-thiazol-2-yl)thiophene-2-carbohydrazide], the LDH with uninduced N2A cells stood at 14.8%. In addition, on tau construct K19, the DC50 came out at 35.5 µM and the pIC50 is 4.60.
As for `COc1cccc(-c2csc(NNC(=O)c3cccs3)n2)c1` [Comp. 23, N′-[4-(3-methoxyphenyl)-1,3-thiazol-2-yl]thiophene-2-carbohydrazide], in the series on uninduced N2A cells, the LDH came to 25.3%. Moreover, at tau construct K19, the DC50 was more than 200 µM and the pIC50 was 4.55.
On to `O=C(NNc1nc(-c2ccccc2)cs1)c1ccc(F)cc1` [Comp. 24, 4-fluoro-N′-(4-phenyl-1,3-thiazol-2-yl)benzohydrazide], for which, in the series with uninduced N2A cells, the LDH is 5.5%. Moreover, on tau construct K19, the DC50 was found to be 16.5 µM and the pIC50 is 4.47.
`O=C(NNc1nc(-c2cccc([N+](=O)[O-])c2)cs1)c1ccccc1Cl` [Comp. 25, 2-chloro-N′-[4-(3-nitrophenyl)-1,3-thiazol-2-yl]benzohydrazide]: the LDH in the series with uninduced N2A cells is 43.0%. Further, at tau construct K19, the DC50 was more than 200 µM and the pIC50 was 4.45.
`O=C(NNc1nc(-c2cc3ccccc3o2)cs1)c1ccc(Cl)cc1` [Comp. 26, N′-[4-(1-benzofuran-2-yl)-1,3-thiazol-2-yl]-4-chlorobenzohydrazide]: the LDH with uninduced N2A cells is −0.6%. In addition, at tau construct K19, the DC50 is 21.3 µM and the pIC50 was 4.33.
Regarding `COc1cccc(-c2csc(NNC(=O)c3ccc(Cl)cc3)n2)c1` [Comp. 27, 4-chloro-N′-[4-(3-methoxyphenyl)-1,3-thiazol-2-yl]benzohydrazide], the LDH in the series on uninduced N2A cells worked out at 42.1%. Further, at tau construct K19, the DC50 is more than 200 µM and the pIC50 was 4.23.
The matching figures for `O=C(NNc1nc(-c2ccc(Br)cc2)cs1)c1ccco1` [Comp. 28, N′-[4-(4-bromophenyl)-1,3-thiazol-2-yl]-2-furohydrazide]: 3.8%, 2 µM and 4.22.
For the compound `O=C(NNc1nc(-c2cccs2)cs1)c1ccc(Cl)cc1` [Comp. 29, 4-chloro-N′-(4-thien-2-yl-1,3-thiazol-2-yl)benzohydrazide], the LDH in the series with uninduced N2A cells stood at 3.8%. Moreover, on tau construct K19, the DC50 is more than 200 µM and the pIC50 is 3.83.
Take `COc1ccc(-c2csc(NNC(=O)c3ccccc3)n2)cc1` [Comp. 69, N′-[4-(4-methoxyphenyl)-1,3-thiazol-2-yl]benzohydrazide]: at tau construct K19, the DC50 turned out to be 19.4 µM and the pIC50 was 4.29.
For `COc1ccc(-c2csc(NNC(=O)c3ccccc3F)n2)cc1` [Comp. 70, 2-fluoro-N′-[4-(4-methoxyphenyl)-1,3-thiazol-2-yl]benzohydrazide] the same measures were 30.5 µM and 4.69.
Consider `O=C(NNc1nc(-c2ccc(Cl)cc2)cs1)c1ccccc1` [Comp. 71, N′-[4-(4-chlorophenyl)-1,3-thiazol-2-yl]benzohydrazide], for which, on tau construct K19, the DC50 was more than 200 µM and the pIC50 was less than 3.70.
Turning to `O=C(NNc1nc(-c2ccc(Cl)cc2)cs1)c1ccccc1F` [Comp. 72, N′-[4-(4-chlorophenyl)-1,3-thiazol-2-yl]-2-fluorobenzohydrazide], on tau construct K19, the DC50 was more than 200 µM and the pIC50 is 4.00.
With `O=C(NNc1nc(-c2cccc([N+](=O)[O-])c2)cs1)c1ccccc1F` [Comp. 73, 2-fluoro-N′-[4-(3-nitrophenyl)-1,3-thiazol-2-yl]benzohydrazide], on tau construct K19, the DC50 came to 38.5 µM and the pIC50 was 4.76.
For the compound `O=C(NNc1nc(-c2ccc(-c3ccccc3)cc2)cs1)c1ccccc1F` [Comp. 74, N′-[4-(1,1′-biphenyl-4-yl)-1,3-thiazol-2-yl]-2-fluorobenzohydrazide], at tau construct K19, the DC50 was found to be 53.9 µM and the pIC50 is 4.69.
For `CN(Nc1nc(-c2ccc([N+](=O)[O-])cc2)cs1)C(=O)c1ccc(-c2ccccc2)cc1` [Comp. 76, N-methyl-N′-[4-(4-nitrophenyl)-1,3-thiazol-2-yl]-1,1′-biphenyl-4-carbohydrazide] the same measures were 138 µM and 4.17.
Consider `CN(C(=O)c1ccc(-c2ccccc2)cc1)N(C)c1nc(-c2ccc([N+](=O)[O-])cc2)cs1` [Comp. 77, N,N′-dimethyl-N′-[4-(4-nitrophenyl)-1,3-thiazol-2-yl]-1,1′-biphenyl-4-carbohydrazide], for which, on tau construct K19, the DC50 was found to be 17.7 µM and the pIC50 was 4.96.
